Results: ChEMBL document CHEMBL1151757, “Synthesis, radiosynthesis, and biological evaluation of fluorine-18-labeled 2beta-carbo(fluoroalkoxy)-3beta-(3'-((Z)-2-haloethenyl)phenyl)nortropanes: candidate radioligands for in vivo imaging of the serotonin transporter with positron emission tomography” (J Med Chem, 2008)

Columns and labels:
[1] = Ratio of drug uptake in medulla to cerebellum in anesthetized cynomolgus monkey after 185 mins postinjection; format: ADME, organism-based, Macaca fascicularis; details: in vivo
[2] = Drug uptake in anesthetized cynomolgus monkey brain occipital lobe after 15.5 mins postinjection; format: ADME, organism-based, Macaca fascicularis; details: in vivo
[3] = Drug uptake in anesthetized cynomolgus monkey brain occipital lobe after 35 mins postinjection; format: ADME, organism-based, Macaca fascicularis; details: in vivo
[4] = Drug uptake in anesthetized cynomolgus monkey brain occipital lobe after 175 mins postinjection; format: ADME, organism-based, Macaca fascicularis; details: in vivo
[5] = Drug uptake in anesthetized cynomolgus monkey brain occipital lobe after 235 mins postinjection; format: ADME, organism-based, Macaca fascicularis; details: in vivo
[6] = Drug uptake in anesthetized cynomolgus monkey brain frontal lobe after 1.5 mins postinjection; format: ADME, organism-based, Macaca fascicularis; details: in vivo, 0.025 h
[7] = Ratio of drug uptake in occipital lobe to cerebellum in anesthetized cynomolgus monkey after 115 mins postinjection; format: ADME, organism-based, Macaca fascicularis; details: in vivo
[8] = tested on: Putamen; test: Drug uptake in anesthetized cynomolgus monkey brain putamen after 135 mins postinjection; format: ADME, organism-based, Macaca fascicularis; details: in vivo, 2.25 h
[9] = tested on: Putamen; test: Drug uptake in anesthetized cynomolgus monkey brain putamen after 235 mins postinjection; format: ADME, organism-based, Macaca fascicularis; details: in vivo
[10] = tested on: Thalamus; test: Drug uptake in anesthetized cynomolgus monkey brain thalamus after 1.5 mins postinjection; format: ADME, organism-based, Macaca fascicularis; details: in vivo, 0.025 h
[11] = Ratio of drug uptake in occipital lobe to cerebellum in anesthetized cynomolgus monkey after 185 mins postinjection; format: ADME, organism-based, Macaca fascicularis; details: in vivo
[12] = Ratio of drug uptake in occipital lobe to cerebellum in anesthetized cynomolgus monkey after 205 mins postinjection; format: ADME, organism-based, Macaca fascicularis; details: in vivo
[13] = Ratio of drug uptake in frontal lobe to cerebellum in anesthetized cynomolgus monkey after 145 mins postinjection; format: ADME, organism-based, Macaca fascicularis; details: in vivo
[14] = tested on: Midbrain; test: Drug uptake in anesthetized cynomolgus monkey brain midbrain after 155 mins postinjection; format: ADME, organism-based, Macaca fascicularis; details: in vivo
[15] = tested on: Midbrain; test: Drug uptake in anesthetized cynomolgus monkey brain midbrain after 165 mins postinjection; format: ADME, organism-based, Macaca fascicularis; details: in vivo, 2.75 h
[16] = tested on: Pons; test: Drug uptake in anesthetized cynomolgus monkey brain pons after 3.5 mins postinjection; format: ADME, organism-based, Macaca fascicularis; details: in vivo
[17] = tested on: Thalamus; test: Drug uptake in anesthetized cynomolgus monkey brain thalamus after 205 mins postinjection; format: ADME, organism-based, Macaca fascicularis; details: in vivo
[18] = tested on: Medulla; test: Drug uptake in anesthetized cynomolgus monkey brain medulla after 185 mins postinjection; format: ADME, organism-based, Macaca fascicularis; details: in vivo
[19] = Ratio of drug uptake in caudate to cerebellum in anesthetized cynomolgus monkey after 12.5 mins postinjection; format: ADME, organism-based, Macaca fascicularis; details: in vivo
[20] = tested on: Pons; test: Drug uptake in anesthetized cynomolgus monkey brain pons after 155 mins postinjection; format: ADME, organism-based, Macaca fascicularis; details: in vivo
[21] = tested on: Medulla; test: Drug uptake in anesthetized cynomolgus monkey brain medulla after 1.5 mins postinjection; format: ADME, organism-based, Macaca fascicularis; details: in vivo, 0.025 h
[22] = tested on: Medulla; test: Drug uptake in anesthetized cynomolgus monkey brain medulla after 9.5 mins postinjection; format: ADME, organism-based, Macaca fascicularis; details: in vivo
[23] = tested on: Medulla; test: Drug uptake in anesthetized cynomolgus monkey brain medulla after 27.5 mins postinjection; format: ADME, organism-based, Macaca fascicularis; details: in vivo
[24] = tested on: Medulla; test: Drug uptake in anesthetized cynomolgus monkey brain medulla after 75 mins postinjection; format: ADME, organism-based, Macaca fascicularis; details: in vivo, 1.25 h
[25] = tested on: Medulla; test: Drug uptake in anesthetized cynomolgus monkey brain medulla after 125 mins postinjection; format: ADME, organism-based, Macaca fascicularis; details: in vivo
[26] = Drug uptake in anesthetized cynomolgus monkey brain cerebellum after 0.5 mins postinjection; format: ADME, organism-based, Macaca fascicularis; details: in vivo
[27] = Drug uptake in anesthetized cynomolgus monkey brain cerebellum after 1.5 mins postinjection; format: ADME, organism-based, Macaca fascicularis; details: in vivo, 0.025 h
[28] = Drug uptake in anesthetized cynomolgus monkey brain cerebellum after 3.5 mins postinjection; format: ADME, organism-based, Macaca fascicularis; details: in vivo
[29] = Drug uptake in anesthetized cynomolgus monkey brain cerebellum after 18.5 mins postinjection; format: ADME, organism-based, Macaca fascicularis; details: in vivo
[30] = Drug uptake in anesthetized cynomolgus monkey brain cerebellum after 155 mins postinjection; format: ADME, organism-based, Macaca fascicularis; details: in vivo
[31] = Ratio of drug uptake in putamen to cerebellum in anesthetized cynomolgus monkey after 215 mins postinjection; format: ADME, organism-based, Macaca fascicularis; details: in vivo
[32] = Ratio of drug uptake in thalamus to cerebellum in anesthetized cynomolgus monkey after 195 mins postinjection; format: ADME, organism-based, Macaca fascicularis; details: in vivo, 3.25 h
[33] = tested on: Caudate; test: Drug uptake in anesthetized cynomolgus monkey brain caudate after 35 mins postinjection; format: ADME, organism-based, Macaca fascicularis, Caudate nucleus; details: in vivo
[34] = tested on: Caudate; test: Drug uptake in anesthetized cynomolgus monkey brain caudate after 85 mins postinjection; format: ADME, organism-based, Macaca fascicularis, Caudate nucleus; details: in vivo
[35] = tested on: Caudate; test: Drug uptake in anesthetized cynomolgus monkey brain caudate after 115 mins postinjection; format: ADME, organism-based, Macaca fascicularis, Caudate nucleus; details: in vivo
[36] = tested on: Caudate; test: Drug uptake in anesthetized cynomolgus monkey brain caudate after 145 mins postinjection; format: ADME, organism-based, Macaca fascicularis, Caudate nucleus; details: in vivo
[37] = tested on: Caudate; test: Drug uptake in anesthetized cynomolgus monkey brain caudate after 215 mins postinjection; format: ADME, organism-based, Macaca fascicularis, Caudate nucleus; details: in vivo
[38] = tested on: Putamen; test: Drug uptake in anesthetized cynomolgus monkey brain putamen after 0.5 mins postinjection; format: ADME, organism-based, Macaca fascicularis; details: in vivo
[39] = tested on: Putamen; test: Drug uptake in anesthetized cynomolgus monkey brain putamen after 12.5 mins postinjection; format: ADME, organism-based, Macaca fascicularis; parameters: unit not given here; details: in vivo
[40] = tested on: Putamen; test: Drug uptake in anesthetized cynomolgus monkey brain putamen after 55 mins postinjection; format: ADME, organism-based, Macaca fascicularis; parameters: unit not given here; details: in vivo
[41] = tested on: Thalamus; test: Drug uptake in anesthetized cynomolgus monkey brain thalamus after 95 mins postinjection; format: ADME, organism-based, Macaca fascicularis; parameters: unit not given here; details: in vivo
[42] = tested on: Thalamus; test: Drug uptake in anesthetized cynomolgus monkey brain thalamus after 125 mins postinjection; format: ADME, organism-based, Macaca fascicularis; parameters: unit not given here; details: in vivo
[43] = tested on: Thalamus; test: Drug uptake in anesthetized cynomolgus monkey brain thalamus after 175 mins postinjection; format: ADME, organism-based, Macaca fascicularis; parameters: unit not given here; details: in vivo
[44] = tested on: Thalamus; test: Drug uptake in anesthetized cynomolgus monkey brain thalamus after 215 mins postinjection; format: ADME, organism-based, Macaca fascicularis; parameters: unit not given here; details: in vivo
[45] = tested on: Thalamus; test: Drug uptake in anesthetized cynomolgus monkey brain thalamus after 235 mins postinjection; format: ADME, organism-based, Macaca fascicularis; parameters: unit not given here; details: in vivo
[46] = tested on: Midbrain; test: Drug uptake in anesthetized cynomolgus monkey brain midbrain after 3.5 mins postinjection; format: ADME, organism-based, Macaca fascicularis; parameters: unit not given here; details: in vivo
[47] = Ratio of drug uptake in midbrain to cerebellum in anesthetized cynomolgus monkey after 145 mins postinjection; format: ADME, organism-based, Macaca fascicularis; details: in vivo
[48] = Drug uptake in awake rhesus monkey brain frontal lobe after 13.5 mins postinjection; format: ADME, organism-based, Macaca mulatta; details: in vivo, 0.225 h
[49] = Drug uptake in awake rhesus monkey brain frontal lobe after 65 mins postinjection; format: ADME, organism-based, Macaca mulatta; details: in vivo
[50] = Drug uptake in awake rhesus monkey brain medulla after 65 mins postinjection; format: ADME, organism-based, Macaca mulatta; details: in vivo
[51] = Drug uptake in awake rhesus monkey brain pons after 75 mins postinjection; format: ADME, organism-based, Macaca mulatta; details: in vivo, 1.25 h
[52] = Drug uptake in awake rhesus monkey brain medulla after 115 mins postinjection; format: ADME, organism-based, Macaca mulatta; details: in vivo
[53] = Ratio of drug uptake in putamen to cerebellum in awake rhesus monkey after 45 mins postinjection; format: ADME, organism-based, Macaca mulatta; details: in vivo, 0.75 h
[54] = Ratio of drug uptake in caudate to cerebellum in awake rhesus monkey after 25 mins postinjection; format: ADME, organism-based, Macaca mulatta; details: in vivo
[55] = Drug uptake in awake rhesus monkey brain caudate after 55 mins postinjection; format: ADME, organism-based, Macaca mulatta, Caudate nucleus; details: in vivo
[56] = Ratio of drug uptake in pons to cerebellum in awake rhesus monkey after 10.5 mins postinjection; format: ADME, organism-based, Macaca mulatta; details: in vivo, 0.175 h
[57] = Drug uptake in awake rhesus monkey brain thalamus after 65 mins postinjection; format: ADME, organism-based, Macaca mulatta; details: in vivo

O=C(OCC[18F])C1C2CCC(CC1c1cccc(/C=C\Br)c1)N2 (stereo not given) showed a Ratio [1] of 1.9, a Drug uptake [2] of 2.99 and a Drug uptake [3] of 3.43. For the same compound, the Drug uptake [4] was 2.42, the Drug uptake [5] was 1.94 and the Drug uptake [6] was 0.04. For the same compound, the Ratio [7] was 1.1, the Drug uptake [8] was 4.4 and the Drug uptake [9] was 2.98. The Drug uptake [10] was 0.08, the Ratio [11] was 1.3 and the Ratio [12] was 1.3. The Ratio [13] was 1.1, the Drug uptake [14] was 4.54 and the Drug uptake [15] was 4.28. It also gave a Drug uptake [16] of 0.82, a Drug uptake [17] of 3.3 and a Drug uptake [18] of 3.61. The Ratio [19] was 0.8, the Drug uptake [20] was 3.92 and the Drug uptake [21] was 0.08. For the same compound, the Drug uptake [22] was 3.76, the Drug uptake [23] was 4.57 and the Drug uptake [24] was 4.73. For the same compound, the Drug uptake [25] was 4.14, the Drug uptake [26] was 0 and the Drug uptake [27] was 0.06. It also gave a Drug uptake [28] of 1.14, a Drug uptake [29] of 3.59 and a Drug uptake [30] of 2.19. It also gave a Ratio [31] of 1.8, a Ratio [32] of 1.8 and a Drug uptake [33] of 3.56. It also gave a Drug uptake [34] of 4.06, a Drug uptake [35] of 4.06 and a Drug uptake [36] of 3.52. For the same compound, the Drug uptake [37] was 2.85, the Drug uptake [38] was 0.01 and the Drug uptake [39] was 3.69. For the same compound, the Drug uptake [40] was 5.05, the Drug uptake [41] was 4.31 and the Drug uptake [42] was 4.15. For the same compound, the Drug uptake [43] was 3.36, the Drug uptake [44] was 2.92 and the Drug uptake [45] was 2.88. For the same compound, the Drug uptake [46] was 0.95 and the Ratio [47] was 2.
O=C(OCC[18F])C1C2CCC(CC1c1ccc(/C=C\I)cc1)N2 (stereo not given) gave a Ratio [1] of 2.5, a Drug uptake [3] of 2.13 and a Ratio [7] of 1.3. The Drug uptake [8] was 4.33, the Drug uptake [9] was 3.83 and the Drug uptake [10] was 0.11. For the same compound, the Drug uptake [48] was 1.57, the Drug uptake [49] was 2.25 and the Ratio [11] was 1.4. The Ratio [12] was 1.4, the Drug uptake [14] was 4.65 and the Drug uptake [15] was 4.6. The Drug uptake [16] was 0.67, the Drug uptake [50] was 2.28 and the Drug uptake [17] was 3.59. The Drug uptake [18] was 3.41, the Drug uptake [51] was 2.75 and the Drug uptake [52] was 2.57. The Ratio [19] was 0.8, the Drug uptake [20] was 3.43 and the Drug uptake [21] was 0.14. It also gave a Drug uptake [22] of 2.45, a Drug uptake [23] of 3.35 and a Drug uptake [24] of 3.82. The Ratio [53] was 1.6, the Ratio [54] was 1.3 and the Drug uptake [25] was 3.81. The Drug uptake [55] was 3.11, the Ratio [56] was 0.9 and the Drug uptake [26] was 0. It also gave a Drug uptake [27] of 0.1, a Ratio [31] of 3.3 and a Ratio [32] of 2.8. For the same compound, the Drug uptake [57] was 3.48, the Drug uptake [33] was 2.33 and the Drug uptake [34] was 3.03. The Drug uptake [35] was 3.11, the Drug uptake [36] was 3.05 and the Drug uptake [37] was 2.81. The Drug uptake [38] was 0, the Drug uptake [39] was 2.59 and the Drug uptake [40] was 4.02. It also gave a Drug uptake [41] of 4.15, a Drug uptake [42] of 4.04 and a Drug uptake [43] of 3.78. The Drug uptake [44] was 3.47, the Drug uptake [45] was 3.34 and the Drug uptake [46] was 0.84.
